Test results published in US12616203B2, “Use of 3-isoxazolidinones compounds as selective herbicides” (FMC Corporation, priority 2014, dated 2026).
Where two headings read alike, the source gives them in different places.

Assays:
Common lambsquarters = experiment: Ex34 PRE 2,4-DC + napropamide, % control, Colby; assay type: in vivo, Chenopodium album; details: 28 DAT
Text: (§1) Thereafter flats were watered and fertilized routinely.

Littleseed canarygrass = experiment: Ex34 PRE 2,4-DC + napropamide, % control, Colby; assay type: in vivo, Phalaris minor; details: 28 DAT
Text: as §1

Wild buckwheat = experiment: Ex34 PRE 2,4-DC + napropamide, % control, Colby; assay type: in vivo, Polygonum convolvulus; details: 28 DAT
Text: as §1

Blackgrass = experiment: Ex34 PRE 2,4-DC + napropamide, % control, Colby; assay type: in vivo, Alopecurus myosuroides; details: 28 DAT
Text: as §1

weeds = experiment: Ex18 PRE greenhouse; assay type: in vivo; details: weed and rate in the words
Text: Additional treatments included application of metazachlor (Butisan®, 43.1%) at 750 g ai/ha, napropamide (Devrinol DF®, 50%) at 1260 g ai/ha, and dimethachlor (Teridox®, 48%) at 1000 g ai/ha. […] Treatments were applied just after the seeding of annual bluegrass, cheat, wild oat, quackgrass, field violet, blackgrass, littleseed canarygrass, silky windgrass, yellow foxtail, and goosegrass. […] Flats were watered and fertilized routinely after treatment application. Each treatment was replicated three times.

weeds; canola = experiment: Ex34 PRE greenhouse; assay type: in vivo; details: rate in the words
Text: as §1

Annual bluegrass = experiment: Ex34 PRE 2,4-DC + napropamide, % control, Colby; assay type: in vivo, Poa annua; details: 28 DAT
Text: as §1

weeds; barley and wheat = experiment: Ex40 POST greenhouse; assay type: in vivo; details: rate in the words
Description: (§2) Treatments were applied to barley and wheat crops.
(§3) Non-ionic surfactant (NIS) was added to all treatments at 0.5% v/v. All plant species were direct seeded into 3″ plastic pots using metro-mix as growth media. At treatment common lambsquarters was 1.75″, common chickweed was 2″, wild mustard was 2.25″, wild oat was 5.5″, wild buckwheat was 2-5″, Italian ryegrass was 2-3″, wheat was 5.5″ and barley was 4.5″ in height. Plants were watered well before application and not watered 24 h after application. Plants were watered and fertilized routinely after treatment application. Each treatment was replicated four times. Treated flats were placed in randomized block design in the greenhouse.

Italian ryegrass = experiment: Ex36 POST 2,4-DC + metsulfuron-methyl, % control 28 DAT, Colby; assay type: in vivo, Lolium perenne L. ssp. multiflorum
Text: Crops screened were wheat and barley.

wheat [1] = experiment: Ex40 POST 2,4-DC + metsulfuron-methyl, crop injury 7 DAT; assay type: in vivo; details: POST
Description: as §2, §3

Barley [2] = experiment: as above; assay type: in vivo; details: POST
Description: as §2, §3

[3] = tested on: weeds; Sugarcane (var. CTC 20); experiment: Ex17 PRE greenhouse; assay type: in vivo; details: weed and rate in the words
Description: In this example a study was conducted to determine weed efficacy and sugarcane injury when 2,4 DC or isoxaflutole are applied either alone or tank-mix as preemergence against the weeds: Ivyleaf morningglory (Ipomoea hederacea, IPOHE), hairy beggartickss (Bidens pilosa, BIDPI), yellow nutsedge (Cyperus esculentus, CYPES), large crabgrass (Digitaria sanguinalis, DIGSA), and redroot pigweed (Amaranthus retroflexus, AMARE). The crop tested in this study was Sugarcane (var. CTC 20).
To determine weed efficacy and sugarcane selectivity, 2,4 DC (SC 36%) and isoxaflutole (Balance Flexx®, 20%) were applied PRE either alone or as tank-mix partners at rates mentioned below. 2,4 DC was applied at 500, 750, and 1000 g ai/ha while isoxaflutole was applied at 80, 100, and 120 g ai/ha. […] Treatments were applied PRE to sugarcane (var. CTC 20), ivyleaf morningglory, hairy beggarticks, yellow nutsedge, large crabgrass, and redroot pigweed. Weed species were planted in fiber flats (6″×10″) containing Pennington soil. Soil was watered before application and watered lightly after application. Flats were watered and fertilized routinely after treatment application.

barnyardgrass (BG) = experiment: Ex5 PRE greenhouse, % control; assay type: in vivo, Echinochloa crus-galli; details: 28 DAT, g ai/ha by row: r10-26 2,4-DC 50/100/200 (3 rows each) + mesotrione 25/50/100 (cycling)
Description: (§4) Test compositions containing 2,4-DC Example 1C and mesotrione (Callisto® Herbicide, 40% active ingredient, Syngenta) and mixtures of 2-(2,4-dichlorophenyl)methyl-4,4-dimethyl-3-isoxazolidinone and mesotrione, were diluted with water to provide the appropriate test rate concentration.
(§5) The test weeds were barnyardgrass (BG) (Echinochloa crus-galli), jimsonweed (PA) (Datura stramonium), velvetleaf (VL) (Abutilon theophrasti), common cockelbur (CC) (Xanthium strumarium) and hairy beggarticks (HB) (Bidens pilosa). Crops included in the evaluation were field corn and sorghum.
(§6) For pre-emergence testing, four disposable fiber flats (6″ by 10″) for each rate of application of each herbicide solution were filled with top soil, to which seeds of each species were planted in furrows made by a template pressed on the top of the soil. The furrows with seeds were covered with soil and were watered well before application of the test compounds. Flats designated for treatment were placed in a spray chamber having a static platform and a movable sprayer and height of the spray nozzle was 10.5 inches above the soil level. Once the sprayer was calibrated using water for spray volume of 30 gallons per acre, flats were sprayed with sprayer at a speed to receive a coverage equivalent of 30 gallons per acre.
(§7) The application rates are those shown in Table 4 below for the individual herbicidal solutions and the herbicide compositions of the present invention. The pre-emergence flats were immediately placed in the greenhouse and watered lightly after treatment. Thereafter they were regularly watered and fertilized for the duration of the test. The control of weeds and injury to crops was evaluated in each experimental test at 28 days after treatment (DAT). […] Percent control was determined by a method similar to the 0 to 100 rating system disclosed in “Research Methods in Weed Science,” 2nd ed., B. Truelove, Ed.; Southern Weed Science Society; Auburn University, Auburn, Ala., 1977.

jimsonweed = experiment: Ex5 PRE greenhouse, % control; assay type: in vivo, Datura stramonium; details: 28 DAT, g ai/ha by row: r10-26 2,4-DC 50/100/200 (3 rows each) + mesotrione 25/50/100 (cycling)
Description: as §4, §5, §6, §7

[4] = tested on: weeds; sweet corn, yellow corn, and sorghum; experiment: Ex31 PRE greenhouse; assay type: in vivo; details: weed and rate in the words
Text: Flats were watered and fertilized routinely after treatment application.

weeds; Sugarcane (CTC20) = experiment: Ex23 PRE greenhouse; details: 28 DAT, weed and rate in the words
Description: (Ipomoea spp). The tested crop in this study was Sugarcane (CTC20).
Sugarcane was direct seeded into 6″ plastic pots using 3-4″ sugarcane setts, oriented bud up, with bud leaf shield removed. 2,4 DC and sulfentrazone were applied alone or combined as tank-mix at each rate mentioned below. […] Treatments were replicated 3 times. […] Thereafter flats were watered and fertilized routinely. […] Visual percent sugarcane injury was recorded at 21 and 28 DAT, using a scale of 0 (no injury, observed as bleaching, stunting or necrosis) to 100 (complete plant death).

[5] = tested on: sweet corn, yellow corn, and sorghum; details: PRE; crop and rate in the words
Description: Treatments were also applied ot sweet corn, yellow corn, and sorghum.
Treatments were applied before the emergence of Jimsonweed, velvetleaf, hairy beggarticks, common cocklebur, barnyardgrass, sweet corn, yellow corn, and sorghum. Plant species were planted in fiber flats (6″×10″) containing Pennington soil and flats were watered well before application and watered lightly after application. Flats were watered and fertilized routinely after treatment application.

velvetleaf (VL) = experiment: Ex5 PRE greenhouse, % control; assay type: in vivo, Abutilon theophrasti; details: 28 DAT, g ai/ha by row: r10-26 2,4-DC 50/100/200 (3 rows each) + mesotrione 25/50/100 (cycling)
Description: as §4, §5, §6, §7

wheat [6] = assay type: in vivo; details: 14 DAT, POST
Description: (§8) Treatments were applied to wheat and barley crops.
(§9) Nonionic surfactant was added at 0.5% v/v in all treatments. Treatments were applied to wheat (5.5″), barley (5″), wild oat (5.5″), common chickweed (2″), wild buckwheat (3″), and common lambsquarters (2″). All plant species were direct seeded into 3″ plastic pots using metro-mix as growth media and pots were watered well before application and watered 24 h after application. Plants were watered and fertilized routinely after treatment application. Each treatment was replicated four times.

Barley [7] = assay type: in vivo; details: 14 DAT, POST
Description: as §8, §9

weeds; Wheat and Barley = experiment: Ex41 POST greenhouse; assay type: in vivo; details: rate in the words
Description: as §8, §9

Sorghum = experiment: Ex46 PRE sorghum injury 7, 14, 21, 28 DAT; details: rate in the words
Description: Treatments were applied to sorghum at the time of planting using Pennington soil. Each treatment was replicated four times. Soil was watered before and after application for herbicide activation. Plants were watered and fertilized routinely. […] Visual percent crop injury was recorded at 7, 14, 21, and 28 days after treatment using a scale of 0 (no injury) to 100 (complete plant death).

[8] = r28-30 2,4-DC 50/100/200, r31-33 mesotrione 25/50/100, 25 g ai/ha
[9] = r28-30 2,4-DC 50/100/200, r31-33 mesotrione 25/50/100, 50 g ai/ha
[10] = r28-30 2,4-DC 50/100/200, r31-33 mesotrione 25/50/100, 100 g ai/ha
[11] = thifensulfuron-methyl 50 g ai/ha
[12] = thifensulfuron-methyl 75 g ai/ha
[13] = thifensulfuron-methyl 100 g ai/ha

## CCN(CC)C(=O)C(C)Oc1cccc2ccccc12 (stereo not drawn) [napropamide, reference compound]
Common lambsquarters; Napropamide alone 315 g ai/ha
  Y: 50%
Common lambsquarters; Napropamide alone 630 g ai/ha
  Y: 73%
Common lambsquarters; Napropamide alone 1260 g ai/ha
  Y: 91%
Littleseed canarygrass; Napropamide alone 315 g ai/ha
  Y: 50%
Littleseed canarygrass; Napropamide alone 630 g ai/ha
  Y: 87%
Littleseed canarygrass; Napropamide alone 1260 g ai/ha
  Y: 100%
Wild buckwheat; Napropamide alone 315 g ai/ha
  Y: 23%
Wild buckwheat; Napropamide alone 630 g ai/ha
  Y: 23%
Wild buckwheat; Napropamide alone 1260 g ai/ha
  Y: 38%
Blackgrass; Napropamide alone 315 g ai/ha
  Y: 5%
Blackgrass; Napropamide alone 630 g ai/ha
  Y: 7%
Blackgrass; Napropamide alone 1260 g ai/ha
  Y: 15%
weeds
  weed control in words: controlled all weeds except blackgrass
weeds; canola
  weed control / crop safety in words: alone at 630 g controlled littleseed canarygrass, at 1260 g controlled common lambsquarters, annual bluegrass and Italian ryegrass and was safe on canola at all rates
Annual bluegrass; Napropamide alone 315 g ai/ha
  Y: 1%
Annual bluegrass; Napropamide alone 630 g ai/ha
  Y: 77%
Annual bluegrass; Napropamide alone 1260 g ai/ha
  Y: 92%

## COC(=O)c1ccccc1S(=O)(=O)NC(=O)Nc1nc(C)nc(OC)n1 [Metsulfuron-methyl, metsulfuron-methyl, reference compound]
weeds; barley and wheat
  weed control / crop safety in words: alone controlled wild buckwheat, common chickweed, wild mustard, and common lambsquarters at all rates and was safe on both crops at all rates
Italian ryegrass; metsulfuron-methyl alone 6 g ai/ha
  Y: 6%
Italian ryegrass; metsulfuron-methyl alone 9 g ai/ha
  Y: 18%
Italian ryegrass; metsulfuron-methyl alone 12 g ai/ha
  Y: 16%
Wheat [1]; metsulfuron-methyl 2 g ai/ha
  Y (% crop injury, metsulfuron-methyl alone): 1%
Wheat [1]; metsulfuron-methyl 3 g ai/ha
  Y (% crop injury, metsulfuron-methyl alone): 0%
Wheat [1]; metsulfuron-methyl 4 g ai/ha
  Y (% crop injury, metsulfuron-methyl alone): 2%
Barley [2]; metsulfuron-methyl 2 g ai/ha
  Y (% crop injury, metsulfuron-methyl alone): 5%
Barley [2]; metsulfuron-methyl 3 g ai/ha
  Y (% crop injury, metsulfuron-methyl alone): 7%
Barley [2]; metsulfuron-methyl 4 g ai/ha
  Y (% crop injury, metsulfuron-methyl alone): 9%

## CS(=O)(=O)c1ccc(C(=O)C2C(=O)CCCC2=O)c([N+](=O)[O-])c1 [mesotrione]
[3]
  weed control in words: at 105 g controlled all weeds except ivyleaf morningglory
Barnyardgrass (BG); [8]
  % Control BG: 48%
Barnyardgrass (BG); [9]
  % Control BG: 61%
Barnyardgrass (BG); [10]
  % Control BG: 73%
jimsonweed; [8]
  % Control JW: 68%
jimsonweed; [9]
  % Control JW: 90%
jimsonweed; [10]
  % Control JW: 93%
[4]
  weed control in words: alone gave control of velvetleaf and Jimsonweed at medium or highest rate while it controlled cocklebur and hairy beggarstick at the highest rate only
weeds; Sugarcane (CTC20)
  weed control in words: at 105 g controlled all weeds except morningglory
[5]
  crop safety in words: alone was safe on sweet corn and yellow corn at all three rates; safe on sorghum at 25 and 50 g
Velvetleaf (VL); [8]
  % Control VL: 73%
Velvetleaf (VL); [9]
  % Control VL: 87%
Velvetleaf (VL); [10]
  % Control VL: 100%

## COC(=O)c1sccc1S(=O)(=O)NC(=O)Nc1nc(C)nc(OC)n1 [Thifensulfuron-methyl, thifensulfuron-methyl, reference compound]
Wheat [6]; [11]
  % crop injury for Thifensulfuron-M alone: 0%
Wheat [6]; [12]
  % crop injury for Thifensulfuron-M alone: 0%
Wheat [6]; [13]
  % crop injury for Thifensulfuron-M alone: 1%
Barley [7]; [11]
  % crop injury for Thifensulfuron-M alone: 2%
Barley [7]; [12]
  % crop injury for Thifensulfuron-M alone: 2%
Barley [7]; [13]
  % crop injury for Thifensulfuron-M alone: 2%
weeds; Wheat and Barley
  weed control / crop safety in words: alone controlled all weeds except wild oat, and was safe on both crops

## CC1(C)CON(Cc2cc(Cl)ccc2Cl)C1=O [2,5-DC, 2-(2,5-dichlorophenyl)methyl-4,4-dimethyl-3-isoxazolidinone]
Sorghum
  sorghum safety in words: safe on sorghum at rates ranging from 31 to 125 g ai/ha irrespective of rating timings
